Reference: paper PMC12195677, “In Vitro Effect of Ferruginol, Tanshinone, and Carnosol Analogues on the Proliferation of Three Breast Cancer Cell Lines” (Molecules, 2025)
Read-outs that look alike come from different tables or passages of the source.

Tests used:
SUM149 [1] = assay: CellTiter-Glo cell viability/proliferation assay, SUM149; format: cell-based, Human; details: for TI (therapeutic index) SUM149: EC50 BJ fibroblasts / EC50 SUM149; for IC50: Homo sapiens, SUM149, 72 h incubation, CellTiter-Glo, mean ± SD, read-out: Cytotoxicity IC50, SUM149
Description: (§1) The compounds were systematically assessed through multiple biological testing platforms to establish their relative effectiveness and explore potential correlations between chemical structure and biological function. Firstly, their ability to inhibit the proliferation of three specific breast cancer linages (SUM149, MDA-MB231, MCF07) was evaluated in vitro by using the established CellTiter-Glo® [18, 19] cellular proliferation assay.
(§2) Human cell lines were incubated at 37 °C in a 5% CO2 atmosphere and maintained under sterile conditions. Cells were tested for Mycoplasma (Lonza, Alpharetta, GA, USA) using the manufacturer’s conditions prior to experiments. Cell lines were purchased from American Type Culture Collection (ATCC, Manassas, VA, USA), and SUM149 was obtained from Asterand (Detroit, MI, USA) and cultured without antibiotics unless stated. Cells were cultured in Eagle’s Minimum Essential Medium (EMEM), DMEM, or F12 from ATCC supplemented with 10% fetal bovine serum (FBS, Hyclone, Logan, UT, USA) and 1% GlutaMAX. Human BJ fibroblast cells (ATCC, CRL-2522) were supplemented with 10% fetal bovine serum (FBS, Hyclone, Logan, UT, USA) and 1% GlutaMAX. BJ cells were cultured in EMEM media, and breast cancer cells (MDA-MB-231, MCF07) were cultured in DMEM. SUM149 was cultured in Ham’s F12 supplemented with 1% GlutaMAX,1% Pen/Step, 2 μM cortisol, and 1 ug/mL insulin. Cells were grown to 80% confluence densities as recommended by ATCC.
(§3) Cytotoxicity evaluation was performed using the CellTiter-Glo Luminescent Cell Viability Assay kit (G7570, Promega, Madison, WI, USA), according to the manufacturer’s instructions. Briefly, the cell concentrations used were experimentally determined to ensure logarithmic growth during the 72 h duration of the experiment and avoid adverse effects on cell growth by DMSO exposure. To proceed, […] cells/well were seeded in 96-well white flat-bottomed plates (#3610 Corning, Corning, NY, USA) in […]. The plates were incubated at 37 °C in 5% CO2 for 24 h before drugging. Test compounds (10 mM in DMSO) in eight 2-fold serial dilutions were dispensed to assay plates. The final concentration of DMSO was 0.3% (v/v) in each well. The positive controls included staurosporine (10 μM) and/or gambogic acid (10 μM). The plates were incubated for 72 h at 37 °C in 5% CO2, then quenched with CellTiter-Glo® (Promega, Madison, WI, USA, 50 uL/well), centrifuged at 1000 rpm for 1 min, and incubated at RT for 20 min. Luminescence was recorded with a plate reader (CLARIOstar Plus, BMG LabTech, Ortenberg, Germany). The mean luminescence of each experimental treatment group was normalized as a percentage of the mean intensity of untreated controls. EC50 values were calculated from dose-response curve-fitting via non-linear regression using GraphPad Prism 9.0 (GraphPad Software, San Diego, CA, USA). A therapeutic index (TI) between normal and tumor cell lines can be determined (EC50 non-neoplastic cell line BJ)/(EC50 cancer cell line).

MDA-MB231 [2] = assay: CellTiter-Glo cell viability/proliferation assay, MDA-MB231; format: cell-based, Human; details: for TI (therapeutic index) MDA-MB231: EC50 BJ fibroblasts / EC50 MDA-MB231; for IC50: Homo sapiens, MDA-MB-231, 72 h incubation, CellTiter-Glo, mean ± SD, read-out: Cytotoxicity IC50, MDA-MB231
Description: as §1, §2, §3

MCF07 [3] = assay: CellTiter-Glo cell viability/proliferation assay, MCF07; format: cell-based, Human; details: for TI (therapeutic index) MCF07: EC50 BJ fibroblasts / EC50 MCF07; for IC50: Homo sapiens, 72 h incubation, CellTiter-Glo, mean ± SD, read-out: Cytotoxicity IC50, MCF07
Description: as §1, §2, §3

[4] = CellTiter-Glo cell viability assay, non-neoplastic BJ fibroblasts; format: cell-based; details: BJ fibroblast cells (non-neoplastic, ATCC CRL-2522), non-neoplastic human BJ fibroblasts, mean ± SD, read-out: Cytotoxicity IC50, BJ
Description: as §2, §3

[5] = tested on: MDA-MB231 breast cancer cells; assay: Cell morphology by brightfield microscopy; format: cell-based, Human; details: 24 h treatment, brightfield 10×; 1 and 6 at 5 μM, 10 at 10 μM
Excerpt: Brightfield microscopy images of MDA-MB231 breast cancer cells are indicated in Figure 6 to highlight the morphological changes that occur upon treatment with compounds 1, 6, and 10 as representative compounds. […] The precise mechanism of cell death for other compounds remained unclear.
Representative images were collected using 10× objective with a Leica DMi1 Microscope (Leica microsystems, Wetzlar, Germany). MDA-MB231 cells were imaged with a vehicle as the negative control, staurosporine as the positive control (2 μM), or compounds with results shown in representative images for 24 h.

SUM149 cells = assay: Colony formation (clonogenic) assay, SUM149; format: cell-based, Human; details: 10 μM
Description: Further evaluation of various promising compounds using breast cancer cells included analysis of colony-forming inhibition capabilities and investigations into their specific mechanistic pathways of action. Thus, the anchorage-dependent colony formation assay, also known as the clonogenic assay, was conducted. This method in cancer research evaluates the ability of single cells to grow into colonies when attached to a surface and can measure a cell’s ability to undergo “unlimited” division and form a colony (usually defined as ≥50 cells).
The clonogenic assay offers comprehensive insights into the compound’s overall efficacy and is regarded as the definitive method for assessing post-treatment reproductive cell death (both cytotoxic and cytostatic effects). The extended duration of the experiment simultaneously provides valuable data on the compounds’ stability over time, which are not detected in short-term viability assays. […] In the MDA-MB231 cellular model (Figure 3), the evaluated compounds successfully eliminated the cells’ capacity to establish colonies (for images, see Figures S3 and S4).
MDA-MB-231 (0.8 × 10^6 cells/well) and SUM-149 cells (1.5 × 10^6 cells/well) were plated on a 6-well plate. Two days later, cell media was changed to 5% FBS, and cells were incubated at 37 °C in a 5% CO2 atmosphere for 1 h before the vehicle (0.1% DMSO) or compound (5–10μM) was added. After 72 h of treatment, cells were trypsinized and reseeded at 800 cells/mL (MDA-MB231) and 1200 cells/mL (SUM149) per well in 6-well plates. After 10 days of culture, the media was removed from the wells and washed once with cold PBS. The colonies were stained with 5 mL of 1% Crystal Violet for 30 min. The dishes were fixed by methanol, rinsed with water three times, and air-dried, and the colonies were counted using ImageJ version 1.5.4 (NIH, Bethesda, MD, USA).

[6] = tested on: several breast cancer cell lines; set-up: method as in PMID 36831660; details: cited from earlier work; for therapeutic index range: range over the named compounds and cell lines (Table 1)
SUM149 [7] = details: cited from earlier work; for TI (therapeutic index) SUM149: EC50 BJ fibroblasts / EC50 SUM149
MDA-MB231 [8] = details: cited from earlier work; for TI (therapeutic index) MDA-MB231: EC50 BJ fibroblasts / EC50 MDA-MB231
MCF07 [9] = details: cited from earlier work; for TI (therapeutic index) MCF07: EC50 BJ fibroblasts / EC50 MCF07
human BJ fibroblasts = details: cited from earlier work
[10] = read-out: Cytotoxicity IC50, SUM149, 72 h incubation, CellTiter-Glo, mean ± SD
[11] = read-out: Cytotoxicity IC50, MDA-MB231, 72 h incubation, CellTiter-Glo, mean ± SD
[12] = read-out: Cytotoxicity IC50, MCF07, 72 h incubation, CellTiter-Glo, mean ± SD
[13] = read-out: Cytotoxicity IC50, BJ, non-neoplastic human BJ fibroblasts, 72 h, CellTiter-Glo, mean ± SD

## CC(C)c1cc2c(cc1O)[C@@]1(C)CCC[C@@](C)(CN3C(=O)c4cccc(F)c4C3=O)[C@@H]1CC2 [Compound 6]
SUM149 [1]
  TI (therapeutic index) SUM149: 13
  IC50: 4.8 ± 0.2 µM
MDA-MB231 [2]
  TI (therapeutic index) MDA-MB231: 7
  IC50: 9.4 ± 0.9 µM
MCF07 [3]
  TI (therapeutic index) MCF07: 12
  IC50: 5.4 ± 0.6 µM
[4]
  IC50 at 72 h: 63.5 ± 6.3 µM
[5]
  Morphological changes (early apoptosis): Membrane blebbing

## COC(=O)[C@]1(C)CCC[C@]2(C)C3=C(C=C(C(C)C)C(=O)C3=O)CC[C@@H]12 [Compound 11]
SUM149 cells
  Colony-forming ability of SUM149 cells: notable exceptions
[6]
  therapeutic index range: 6–43
SUM149 [7]
  TI (therapeutic index) SUM149: 43
SUM149 [7]; conclusions, Table 1 values of these compounds ref 13
  Effectiveness against SUM149 cell line (in words): notable effectiveness
SUM149 [7]; [10]
  IC50: 1.3 ± 0.6 µM
MDA-MB231 [8]
  TI (therapeutic index) MDA-MB231: 15
MDA-MB231 [8]; [11]
  IC50: 3.9 ± 0.8 µM
MCF07 [9]
  TI (therapeutic index) MCF07: 7
MCF07 [9]; [12]
  IC50: 8.3 ± 0.9 µM
Human BJ fibroblasts; [13]
  IC50: 56.5 ± 6.1 µM

## COc1ccc2c(c1)C(=O)N(C[C@]1(C)CCC[C@]3(C)c4cc(O)c(C(C)C)cc4CC[C@@H]13)C2=O [Compound 9, 12-Hydroxy-N,N-(4-methoxyphthaloyl)dehydroabietylamine]
SUM149 [1]
  TI (therapeutic index) SUM149: 14
  IC50: 4.3 ± 0.2 µM
MDA-MB231 [2]
  TI (therapeutic index) MDA-MB231: 7
  IC50: 8.2 ± 0.8 µM
MCF07 [3]
  TI (therapeutic index) MCF07: 5
  IC50: 12 ± 1.2 µM
[4]
  IC50 at 72 h: 58.9 ± 5.7 µM

## CC(C)c1cc2c(cc1O)[C@@]1(C)CCC[C@@](C)(CN3C(=O)c4ccccc4C3=O)[C@@H]1CC2 [Compound 5, 18-(phthalimid-2-yl)ferruginol]
[6]
  therapeutic index range: 6–43
SUM149 [7]
  TI (therapeutic index) SUM149: 17
SUM149 [7]; [10]
  IC50: 4.4 ± 0.2 µM
MDA-MB231 [8]
  TI (therapeutic index) MDA-MB231: 9
MDA-MB231 [8]; [11]
  IC50: 8.2 ± 0.5 µM
MCF07 [9]
  TI (therapeutic index) MCF07: 6
MCF07 [9]; [12]
  IC50: 13 ± 0.6 µM
Human BJ fibroblasts; [13]
  IC50: 74.8 ± 5.3 µM

## COC(=O)[C@]1(C)CCC[C@]2(C)c3c(cc(C(C)C)c(O)c3O)CC[C@@H]12 [Compound 13]
[6]; conclusions, Table 1 values of this compound ref 13
  Bioactivity across the tested cell lines (in words): minimal activity
SUM149 [7]
  TI (therapeutic index) SUM149: ≈1
  IC50: > 50 µM
MDA-MB231 [8]
  TI (therapeutic index) MDA-MB231: 6
  IC50: 9.4 ± 0.4 µM
MCF07 [9]
  TI (therapeutic index) MCF07: ≈1
  IC50: > 50 µM
Human BJ fibroblasts
  IC50: 57.6 ± 3 µM

## CC(C)c1cc2c(c(O)c1O)[C@@]1(C)CCC[C@@](C)(CN3C(=O)c4ccccc4C3=O)[C@@H]1CC2 [Compound 12]
[6]
  therapeutic index range: 6–43
SUM149 [7]
  TI (therapeutic index) SUM149: 18
  IC50: 1.8 ± 0.2 µM
MDA-MB231 [8]
  TI (therapeutic index) MDA-MB231: 12
  IC50: 2.8 ± 0.2 µM
MCF07 [9]
  TI (therapeutic index) MCF07: 7
  IC50: 4.6 ± 0.6 µM
Human BJ fibroblasts
  IC50: 32.5 ± 5 µM

## CC(C)c1cc2c(cc1O)[C@@]1(C)CCC[C@@](C)(CN)[C@@H]1CC2 [Compound 2, 12-hydroxydehydroabietylamine]
SUM149 [7]
  TI (therapeutic index) SUM149: 17
  IC50: 4.4 ± 0.3 µM
MDA-MB231 [8]
  TI (therapeutic index) MDA-MB231: 15
  IC50: 5.1 ± 0.6 µM
MCF07 [9]
  TI (therapeutic index) MCF07: 7
  IC50: 10 ± 1.5 µM
Human BJ fibroblasts
  IC50: 75 ± 6.2 µM

## CC(C)c1cc2c(cc1O)[C@@]1(C)CCC[C@@](C)(CN3C(=O)c4ccc(F)cc4C3=O)[C@@H]1CC2 [Compound 7]
SUM149 [1]
  TI (therapeutic index) SUM149: >12
  IC50: 4.3 ± 0.1 µM
MDA-MB231 [2]
  TI (therapeutic index) MDA-MB231: >7
  IC50: 7.6 ± 0.2 µM
MCF07 [3]
  TI (therapeutic index) MCF07: >7
  IC50: 7 ± 0.6 µM
[4]
  IC50 at 72 h: > 50 µM

## COc1cccc2c1C(=O)N(C[C@]1(C)CCC[C@]3(C)c4cc(O)c(C(C)C)cc4CC[C@@H]13)C2=O [Compound 8, 12-Hydroxy-N,N-(3-methoxyphthaloyl)dehydroabietylamine]
SUM149 [1]
  TI (therapeutic index) SUM149: 12
  IC50: 5.3 ± 0.1 µM
MDA-MB231 [2]
  TI (therapeutic index) MDA-MB231: ≈1
  IC50: 54.6 ± 5 µM
MCF07 [3]
  TI (therapeutic index) MCF07: 6
  IC50: 11 ± 1.4 µM
[4]
  IC50 at 72 h: 61.2 ± 5.4 µM
